According to patent US7247653B2, “Pharmaceutical composition” (Takeda Pharmaceutical Company Limited, priority 2000, dated 2007):
≈ marks a conversion by molar mass, not a printed value.

Columns and labels:
Format in all cases: physicochemical
[1] = Solubility of compound 72 in 40% aqueous 2-hydroxypropyl-β-cyclodextrin (Experimental Example 8); conditions: HP-β-CyD concentration 40% aqueous solution
Protocol: 40% Aqueous solution of 2-hydroxypropyl-β-cyclodextrin (hereinafter abbreviated as HP-β-CyD) (1 ml) was added to compound 72 (5 mg), and the solubility was confirmed by sonication and vortex mixing. When not dissolved, 40% HP-β-CyD solution (1 ml) was further added, and solubility was confirmed after sonication and vortex mixing in the same manner. The concentration at the time of dissolution was taken as solubility.

[2] = Solubilizing effect of solubilizer on compound 72 (Comparative Example 1): stepwise solvent addition, sonication and vortex mixing
Protocol: Solubilizing Effect of Solubilizer on Compound 72
The solvent (1 ml) shown in Table 6 was added to compound 72 (5 mg), and solubility was confirmed after sonication and vortex mixing. When not dissolved, the solvent (1 ml) was further added, and solubility was confirmed after sonication and vortex mixing in the same manner. The concentration at the time of dissolution was taken as solubility.

[3] = Solubility of compound 72 in polyoxyethylene glycerol triricinoleate 35/ethanol solution (Experimental Example 1); conditions: compound 72 (5 mg) in 50 μl polyoxyethylene glycerol triricinoleate 35/ethanol (w/w): 20/80 (Formulation 1), 65/35 (2), 100/0 (3)
Protocol: Polyoxyethylene glycerol triricinoleate 35/ethanol solution (50 μl) at a ratio (weight ratio) shown in Table 7 was added to compound 72 (5 mg), the mixture was stirred and the solubility was confirmed. The compound 72 dissolved at any mixing ratio, affording a clear solution.

[4] = Solubility of compound 72 in aqueous maltosyl-β-cyclodextrin, HPLC method (Experimental Example 9); conditions: 25° C., 3 hr shaking
Protocol: An aqueous solution of maltosyl-β-cyclodextrin (hereinafter abbreviated as G2-β-CyD) at a concentration shown in Table 18 was added to compound 72 (100 mg) and the mixture was shaken at 25° C. for 3 hr. The solution was filtrated through a 0.45 μm filter, and the solubility of compound 72 was quantitatively determined by HPLC method.

[5] = Solubility of compound 72 in polyoxyethylene hydrogenated castor oil 50/ethanol solution (Experimental Example 4)
Protocol: Polyoxyethylene hydrogenated castor oil 50/ethanol solution (50 μl) at a ratio (weight ratio) shown in Table 11 was added to compound 72 (5 mg), the mixture was stirred and the solubility was confirmed. The compound 72 dissolved at any mixing ratio, affording a clear solution.

In the case of `CCOC(=O)C1=CCCCC1S(=O)(=O)Nc1ccc(F)cc1Cl` (stereo not drawn) [compound 72, d-ethyl 6-[N-(2-chloro-4-fluorophenyl)sulfamoyl]-1-cyclohexene-1-carboxylate], the “Solubility (mg/ml)” value [1] is reported as “About 1.7 mg/ml”, the Solubility ([2]; solvent 10% Pluronic F68 (polyoxyethylene(160)polyoxypropylene(30)glycol), lower concentrations not examined) is reported as “Not more than 0.5 mg/ml” and the Solubility ([2]; solvent 10% ethanol, lower concentrations not examined) is reported as “Not more than 0.5 mg/ml”. For the same molecule, the Solubility ([2]; solvent 10% nicotinamide, lower concentrations not examined) was “Not more than 0.5 mg/ml”, the Solubility ([2]; solvent 10% sodium desoxycholate) was “about 0.7 mg/ml” and the Solubility ([2]; solvent 10% sodium salicylate, lower concentrations not examined) was “Not more than 0.5 mg/ml”. The Solubility ([2]; solvent water) was 13 µg/mL (≈ 0.0359 mM), the Solubility [3] was “not less than 100 mg/ml” and the “Solubility” value ([4]; G2-β-CyD concentration 10%) was 4900 µg/mL (≈ 13.5 mM). The “Solubility” value ([4]; G2-β-CyD concentration 20%) was 13000 µg/mL (≈ 35.9 mM), the “Solubility” value ([4]; G2-β-CyD concentration 40%) was 31700 µg/mL (≈ 87.6 mM) and the Solubility ([5]; compound 72 (5 mg) in 50 μl polyoxyethylene hydrogenated castor oil 50/ethanol (w/w) 20/80) was “Not less than 100 mg/ml”. The Solubility ([5]; compound 72 (5 mg) in 50 μl polyoxyethylene hydrogenated castor oil 50/ethanol (w/w) 65/35) was “Not less than 100 mg/ml” and the “solubility of compound 72 in the solvent used” value ([5]; polyoxyethylene hydrogenated castor oil 50/ethanol, any mixing ratio of Table 11) was “not less than 100 mg/ml”.
